The text below walks through data of US20250121078A1, “PEPTIDE DRUG CONJUGATES AND THEIR USES” (priority 2023, published 2025).

Where a SMILES comes first, the peptide text is derived from it. [ ]: non-standard residue; d: D form. The star is where a group is joined. Paclitaxel(2'-O-succinyl) = CC(=O)O[C@H]1C(=O)[C@@]2(C)[C@H]([C@H](OC(=O)c3ccccc3)[C@]3(O)C[C@H](OC(=O)[C@H](OC(=O)CCC(=O)*)[C@@H](NC(=O)c4ccccc4)c4ccccc4)C(C)=C1C3(C)C)[C@]1(OC(C)=O)CO[C@@H]1C[C@@H]2O; Propanoyl(3-SS-DM1) = COc1cc2cc(c1Cl)N(C)C(=O)C[C@H](OC(=O)[C@H](C)N(C)C(=O)CCSSCCC(=O)*)[C@]1(C)O[C@H]1[C@H](C)[C@@H]1C[C@@](O)(NC(=O)O1)[C@H](OC)/C=C/C=C(\C)C2; d(hArg(Et2)) = CCN=C(NCC)NCCCC[C@@H](N)C(=O)O; hArg(Et2) = CCN=C(NCC)NCCCC[C@H](N)C(=O)O; dPhe(4-Cl) = N[C@H](Cc1ccc(Cl)cc1)C(=O)O; d2Nal = N[C@H](Cc1ccc2ccccc2c1)C(=O)O; dCit = NC(=O)NCCC[C@@H](N)C(=O)O; d3Pal = N[C@H](Cc1cccnc1)C(=O)O

One test concerns the target T1, LHRHR, also known as GnRHR (Homo sapiens, UniProt P30968).
T1 sequence (P30968 1-328): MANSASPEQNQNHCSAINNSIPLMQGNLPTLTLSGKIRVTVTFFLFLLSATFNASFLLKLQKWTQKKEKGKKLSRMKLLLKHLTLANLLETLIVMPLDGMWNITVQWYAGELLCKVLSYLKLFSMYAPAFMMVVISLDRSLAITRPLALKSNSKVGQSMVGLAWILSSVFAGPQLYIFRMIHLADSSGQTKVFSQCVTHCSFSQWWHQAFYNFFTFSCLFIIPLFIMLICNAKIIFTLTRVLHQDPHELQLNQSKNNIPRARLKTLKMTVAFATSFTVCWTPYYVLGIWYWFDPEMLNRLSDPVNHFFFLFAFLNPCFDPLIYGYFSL
As to the kind of experiment: Radioligand binding assay ([125I]-[D-Trp6]-LHRH displacement).
Details: not given
The method, then: An amount of 2 μg of a purified membrane with LHRHR, also known as GnRHR, was incubated with 0.18 nM [125I]-[D-Trp6]-LHRH and compounds of interest in the incubation buffer (50 mM HEPES, pH 7.4, 5 mM MgCl2, 1 mM CaCl2, and 0.2% BSA). The reaction mixtures were incubated for 1 h at 25° C. and then were transferred to a 96-well GF/B filter plate (Millipore Corp., Billerica, MA, USA), which were terminated by manifold filtration and washed with a wash buffer (50 mM HEPES, pH 7.4, and 100 mM NaCl) for six times. The radioactivity bound to the filter was measured by a Topcount® system (PerkinElmer Inc., Waltham, MA, USA). IC50 values were determined by the concentration of a compound required to inhibit 50% of the specific binding of [125I]-[D-Trp6]-LHRH and calculated by nonlinear regression (GraphPad Software, San Diego, CA, USA). The design of these drug conjugates is to actively targeting LHRH-receptor at tumor site and facilitate drug conjugate accumulation in situ. Therefore, selective and strong binding of the synthetic peptide ligand with the receptor is important to allow enrichment of these conjugates, followed by release of the drug payload in the tumor microenvironment.
Compounds of the invention have a binding as low as 0.17 nM.
Molecule `COc1cc2cc(c1Cl)N(C)C(=O)C[C@H](OC(=O)[C@H](C)N(C)C(=O)CCSC(=O)OCc1ccc(O[Si](OCCCn3nnc4c3CC[C@@H]3[C@H](CC4)[C@H]3COC(=O)N(CCCC[C@H](NC(=O)[C@H](CC(C)C)NC(=O)[C@@H](Cc3ccc(NC(N)=O)cc3)NC(=O)[C@H](Cc3ccc(NC(=O)[C@@H]4CC(=O)NC(=O)N4)cc3)NC(=O)[C@H](CO)NC(=O)[C@@H](Cc3cccnc3)NC(=O)[C@@H](Cc3ccc(Cl)cc3)NC(=O)[C@@H](Cc3ccc4ccccc4c3)NC(C)=O)C(=O)N3CCC[C@H]3C(=O)N[C@H](C)C(N)=O)C(C)C)(C(C)C)C(C)C)cc1)[C@]1(C)O[C@H]1[C@H](C)[C@@H]1C[C@@](O)(NC(=O)O1)[C@H](OC)/C=C/C=C(\C)C2` [Compound 19] yielded an IC50 of 1 to 10 nM. As to `CCNC(=NCCCC[C@H](NC(=O)[C@H](CC(C)C)NC(=O)[C@@H](CCCCNC(=O)CCSSCCC(=O)N(C)[C@@H](C)C(=O)O[C@H]1CC(=O)N(C)c2cc(cc(OC)c2Cl)C/C(C)=C/C=C/[C@@H](OC)[C@@]2(O)C[C@H](OC(=O)N2)[C@@H](C)[C@@H]2O[C@@]12C)NC(=O)[C@H](Cc1ccc(O)cc1)NC(=O)[C@H](CO)NC(=O)[C@@H](Cc1cccnc1)NC(=O)[C@@H](Cc1ccc(Cl)cc1)NC(=O)[C@@H](Cc1ccc2ccccc2c1)NC(C)=O)C(=O)N1CCC[C@H]1C(=O)N[C@H](C)C(N)=O)NCC` [Compound 23] (Ac-[d2Nal][dPhe(4-Cl)][d3Pal]SY[dK](Propanoyl(3-SS-DM1))L[hArg(Et2)]P[dA]-NH2), the IC50 was in the range of 0.1 to 1 nM. On the same count and under the same terms, the figure for `COc1cc2cc(c1Cl)N(C)C(=O)C[C@H](OC(=O)[C@H](C)N(C)C(=O)CCSSCCC(=O)NCCCC[C@@H](NC(=O)[C@H](Cc1ccc(O)cc1)NC(=O)[C@H](CO)NC(=O)[C@@H](Cc1cccnc1)NC(=O)[C@@H](Cc1ccc(Cl)cc1)NC(=O)[C@@H](Cc1ccc3ccccc3c1)NC(C)=O)C(=O)N[C@@H](CC(C)C)C(=O)N[C@H](CCCNC(=N)N)C(=O)N1CCC[C@H]1C(=O)N[C@H](C)C(N)=O)[C@]1(C)O[C@H]1[C@H](C)[C@@H]1C[C@@](O)(NC(=O)O1)[C@H](OC)/C=C/C=C(\C)C2` [Compound 24] (Ac-[d2Nal][dPhe(4-Cl)][d3Pal]SY[dK](Propanoyl(3-SS-DM1))L[dR]P[dA]-NH2) is 1 to 10 nM.

The same test, now with this note: purified membrane with LHRHR, 0.18 nM [125I]-[D-Trp6]-LHRH, 1 h at 25° C.; read-out: Binding Assay.
For `CC(=O)N[C@H](Cc1ccc2ccccc2c1)C(=O)N[C@H](Cc1ccc(Cl)cc1)C(=O)N[C@H](Cc1cccnc1)C(=O)N[C@@H](CO)C(=O)N[C@H](CCCCN)C(=O)N[C@H](CCCNC(N)=O)C(=O)N[C@@H](CC(C)C)C(=O)N[C@@H](CCCNC(=N)N)C(=O)N1CCC[C@H]1C(=O)N[C@H](C)C(N)=O` [Compound 1] (Ac-[d2Nal][dPhe(4-Cl)][d3Pal]S[dK][dCit]LRP[dA]-NH2), the IC50 was more than 100 nM. On to `CC(=O)N[C@H](Cc1ccc2ccccc2c1)C(=O)N[C@H](Cc1ccc(Cl)cc1)C(=O)N[C@H](Cc1cccnc1)C(=O)N[C@@H](CO)C(=O)N[C@@H](Cc1ccc(O)cc1)C(=O)N[C@H](CCCCN)C(=O)N[C@@H](CC(C)C)C(=O)N[C@@H](CCCNC(=N)N)C(=O)N1CCC[C@H]1C(=O)N[C@H](C)C(N)=O` [Compound 2] (Ac-[d2Nal][dPhe(4-Cl)][d3Pal]SY[dK]LRP[dA]-NH2), for which the IC50 was in the range of 0.1 to 1 nM. Same read-out and setting: the figure for `CC(=O)N[C@H](Cc1ccc2ccccc2c1)C(=O)N[C@H](Cc1ccc(Cl)cc1)C(=O)N[C@H](Cc1cccnc1)C(=O)N[C@@H](CO)C(=O)N[C@@H](Cc1ccc(O)cc1)C(=O)N[C@H](CCCNC(N)=O)C(=O)N[C@H](CCCCN)C(=O)N[C@@H](CCCNC(=N)N)C(=O)N1CCC[C@H]1C(=O)N[C@H](C)C(N)=O` [Compound 3] (Ac-[d2Nal][dPhe(4-Cl)][d3Pal]SY[dCit][dK]RP[dA]-NH2) is 10 to 100 nM; for `CCNC(=NCCCC[C@@H](NC(=O)[C@H](CCCCN)NC(=O)[C@H](CO)NC(=O)[C@@H](Cc1cccnc1)NC(=O)[C@@H](Cc1ccc(Cl)cc1)NC(=O)[C@@H](Cc1ccc2ccccc2c1)NC(C)=O)C(=O)N[C@@H](CC(C)C)C(=O)N[C@H](CCCCN=C(NCC)NCC)C(=O)N1CCC[C@H]1C(=O)N[C@H](C)C(N)=O)NCC` [Compound 4] (Ac-[d2Nal][dPhe(4-Cl)][d3Pal]SK[d(hArg(Et2))]L[d(hArg(Et2))]P[dA]-NH2) it is more than 100 nM; for `CCNC(=NCCCC[C@@H](NC(=O)[C@H](Cc1ccc(O)cc1)NC(=O)[C@H](CO)NC(=O)[C@@H](Cc1cccnc1)NC(=O)[C@@H](Cc1ccc(Cl)cc1)NC(=O)[C@@H](Cc1ccc2ccccc2c1)NC(C)=O)C(=O)N[C@H](CCCCN)C(=O)N[C@H](CCCCN=C(NCC)NCC)C(=O)N1CCC[C@H]1C(=O)N[C@H](C)C(N)=O)NCC` [Compound 5] (Ac-[d2Nal][dPhe(4-Cl)][d3Pal]SY[d(hArg(Et2))][dK][d(hArg(Et2))]P[dA]-NH2) it is more than 100 nM. Take `CCNC(=NCCCC[C@@H](NC(=O)[C@@H](CCCCNC(=O)CCC(=O)O[C@@H](C(=O)O[C@H]1C[C@@]2(O)[C@@H](OC(=O)c3ccccc3)[C@@H]3[C@]4(OC(C)=O)CO[C@@H]4C[C@H](O)[C@@]3(C)C(=O)[C@H](OC(C)=O)C(=C1C)C2(C)C)[C@@H](NC(=O)c1ccccc1)c1ccccc1)NC(=O)[C@H](CO)NC(=O)[C@@H](Cc1cccnc1)NC(=O)[C@@H](Cc1ccc(Cl)cc1)NC(=O)[C@@H](Cc1ccc2ccccc2c1)NC(C)=O)C(=O)N[C@@H](CC(C)C)C(=O)N[C@H](CCCCN=C(NCC)NCC)C(=O)N1CCC[C@H]1C(=O)N[C@H](C)C(N)=O)NCC` [Compound 7] (Ac-[d2Nal][dPhe(4-Cl)][d3Pal]S[dK](Paclitaxel(2'-O-succinyl))[d(hArg(Et2))]L[d(hArg(Et2))]P[dA]-NH2): the IC50 was more than 100 nM. On the same count and under the same terms, for `CCNC(=NCCCC[C@H](NC(=O)[C@H](CC(C)C)NC(=O)[C@@H](CCCCN)NC(=O)[C@H](Cc1ccc(O)cc1)NC(=O)[C@H](CO)NC(=O)[C@@H](Cc1cccnc1)NC(=O)[C@@H](Cc1ccc(Cl)cc1)NC(=O)[C@@H](Cc1ccc2ccccc2c1)NC(C)=O)C(=O)N1CCC[C@H]1C(=O)N[C@H](C)C(N)=O)NCC` [Compound 12] (Ac-[d2Nal][dPhe(4-Cl)][d3Pal]SY[dK]L[hArg(Et2)]P[dA]-NH2) the value was 0.1 to 1 nM. Still for that read-out and setting: for `CC(=O)N[C@H](Cc1ccc2ccccc2c1)C(=O)N[C@H](Cc1ccc(Cl)cc1)C(=O)N[C@H](Cc1cccnc1)C(=O)N[C@@H](CO)C(=O)N[C@@H](Cc1ccc(O)cc1)C(=O)N[C@H](CCCCN)C(=O)N[C@@H](CC(C)C)C(=O)N[C@H](CCCNC(=N)N)C(=O)N1CCC[C@H]1C(=O)N[C@H](C)C(N)=O` [Compound 13] (Ac-[d2Nal][dPhe(4-Cl)][d3Pal]SY[dK]L[dR]P[dA]-NH2) the value was 10 to 100 nM; for `COc1cccc2c1C(=O)c1c(O)c3c(c(O)c1C2=O)C[C@@](O)(C(=O)CO)C[C@@H]3O[C@H]1C[C@H](NC(=O)OCc2ccc(NC(=O)[C@H](C)NC(=O)[C@@H](NC(=O)c3ccc(COCCOCCOCCn4nnc5c4CC[C@H]4[C@@H](CC5)[C@@H]4COC(=O)NCCCC[C@@H](NC(=O)[C@H](Cc4ccc(O)cc4)NC(=O)[C@H](CO)NC(=O)[C@@H](Cc4cccnc4)NC(=O)[C@@H](Cc4ccc(Cl)cc4)NC(=O)[C@@H](Cc4ccc5ccccc5c4)NC(C)=O)C(=O)N[C@@H](CC(C)C)C(=O)N[C@@H](CCCNC(=N)N)C(=O)N4CCC[C@H]4C(=O)N[C@H](C)C(N)=O)cc3)C(C)C)cc2)[C@H](O)[C@H](C)O1` [Compound 17], 0.1 to 1 nM.

With `COc1cc2cc(c1Cl)N(C)C(=O)C[C@H](OC(=O)[C@H](C)N(C)C(=O)CCSC(=O)OC[C@H]1[C@@H]3CCc4c(nnn4CCCC[C@@H](NC(=O)[C@H](Cc4ccc(O)cc4)NC(=O)[C@H](CO)NC(=O)[C@@H](Cc4cccnc4)NC(=O)[C@@H](Cc4ccc(Cl)cc4)NC(=O)[C@@H](Cc4ccc5ccccc5c4)NC(C)=O)C(=O)N[C@@H](CC(C)C)C(=O)N[C@@H](CCCNC(=N)N)C(=O)N4CCC[C@H]4C(=O)N[C@H](C)C(N)=O)CC[C@@H]31)[C@]1(C)O[C@H]1C(C)[C@@H]1C[C@@](O)(NC(=O)O1)[C@H](OC)/C=C/C=C(\C)C2` (stereo partly shown) [Compound 20], the IC50 is 0.1 to 1 nM.
